Results: PMC8704606, “The Artemiside-Artemisox-Artemisone-M1 Tetrad: Efficacies against Blood Stage P. falciparum Parasites, DMPK Properties, and the Case for Artemiside” (Pharmaceutics, 2021)
Like-named read-outs stand apart in the source and are kept apart here.

Experiments:
[1] = Cytotoxicity (LDH assay) against HepG2 cells; format: cell-based; conditions: human, HepG2 cells (hepatocellular carcinoma)
Procedure: Cytotoxicity against mammalian hepatocellular carcinoma cells (HepG2 cells) was determined using the lactate dehydrogenase assay (LDH, Biovision Inc., Milpitas, CA, USA). […] Compound working solutions were prepared from 10 mM stock solutions (100% DMSO) in complete DMEM to a final DMSO (Sigma-Aldrich) conc. of <0.1% (vol/vol). […] Data analysis was performed using GraphPad Prism (version 6) software.

[2] = Pharmacokinetics and metabolism after iv and po administration; format: in vivo; conditions: for half-life: mean ± SD, read-out: t½ (converted); for MRT last: read-out: MRT0-last; for AUC(0-t): up to 7 h
Procedure: The plasma concentration-time profiles of the parent compounds and metabolites after administration iv and po to male C57/BL6 mice are presented in Figure 2, Figure 3 and Figure 4. Artemiside was quantifiable up to 24 h in all mice dosed iv and up to 7 h po (lower limit of quantitation LLOQ = 1.6 ng/mL or 0.004 μM) (Figure 2). […] For both artemiside and artemisox, the metabolite artemisone was quantifiable up to 3 h in both the po and iv groups (Figure 2 and Figure 3). Thereby it is confirmed that artemiside is rapidly converted via artemisox into artemisone. Artemisone itself was quantifiable up to three hours post dose (Figure 4). The mean circulating concentrations for the compounds and their metabolites are presented in Table S3a–f in the Supplementary Material 1. The metabolite M1 was also detected upon administration of artemiside, artemisox, and artemisone, but it was not quantified here; chromatograms indicating the presence of M1 are illustrated in Figure S3a–c in the Supplementary Material 1. In addition, the plasma concentration-time curves for artemiside and its metabolites artemisone and M1 following iv and po dosing in the same murine model are presented and discussed in detail elsewhere (cf. Figure 4 in reference).
All work was conducted with prior approval of the animal ethics committee of the University of Cape Town in accordance with the South African National Standards for the Care and Use of Animals for Scientific Purposes and guidelines from the South African Department of Health. The requirements and methods for the pharmacokinetics in vivo involving po and iv drug administration, sample extraction, analyses of samples by LC-MS/MS, and data analyses are described elsewhere. For the animal experiments and formulations, the compounds were dissolved in a 10:60:30 mixture of N,N-dimethylacetamide-polypropylene glycol-polyethylene glycol for intravenous dosing (iv) at 5 mg/kg. For the oral dose (po), compounds were individually dosed as a suspension in 0.5% (w/v) hydroxypropylmethylcellulose in water with 0.2% Tween80 at 50 mg/kg to male C57/BL6 mice (n = 3 for each group). For PK sampling, blood samples were collected at predetermined times (0.08, 0.25, 0.5, 1, 3, 5, 7, and 24 h) for both po and iv dosing via tail bleeding into heparinized tubes, centrifuged, and the plasma samples were stored at −80 °C until extraction. For preparation of samples, the frozen plasma samples were thawed and 15 μL was extracted by liquid–liquid extraction using a universal buffer (pH8) containing 10 ng/mL of the internal standard and ethyl acetate, and the extract was vortexed and centrifuged. Calibration standards and quality controls were extracted following the same procedure. Supernatants were dried down, reconstituted, and injected onto the column for LC-MS/MS analysis using an AB SCIEX 5500 QTRAP instrument coupled to an Agilent 1260 HPLC detection system as previously described.

[3] = test system: late-stage (LG) Pf NF54 gametocytes; design: method as in PMID 29866868; conditions: late-stage gametocytes >90% stages IV-V; dose responses obtained at 72 h; ± SEM; cited from earlier work
[4] = test system: Chinese hamster ovary (CHO) cells; design: method as in PMID 29866868, PMID 31998692; conditions: other cell lines including CHO cells; read-out: EC50 cytotoxicity; cited from earlier work
[5] = male, C57/BL6, mouse, plasma, iv 5 mg/kg, parent drug
[6] = male, C57/BL6, mouse, plasma, po 50 mg/kg, parent drug

C[C@H]1[C@H](N2CCSCC2)O[C@@H]2O[C@@]3(C)CC[C@H]4[C@H](C)CC[C@@H]1[C@@]24OO3 [Artemiside 5, Artemiside]
IC50 at 24 h [1]: > 50 µM | Mean po circulating concentration ([2]; 24 h after po 50 mg/kg artemiside 5): blq | quantifiable/detectable in plasma up to ([2]; iv group, parent drug, LLOQ 1.6 ng/mL or 0.004 μM for artemiside): up to 24 h | concentration at 0.08 h ([2]; male, C57/BL6, mouse, plasma, iv, 5 mg/kg, 0.08 h after iv 5 mg/kg artemiside 5, read-out: Mean iv circulating concentration): 6240 nM | concentration at 0.25 h ([2]; male, C57/BL6, mouse, plasma, iv, 5 mg/kg, 0.25 h after iv 5 mg/kg artemiside 5, read-out: Mean iv circulating concentration): 3560 nM | concentration at 0.5 h ([2]; male, C57/BL6, mouse, plasma, iv, 5 mg/kg, 0.5 h after iv 5 mg/kg artemiside 5, read-out: Mean iv circulating concentration): 1710 nM | concentration at 1 h ([2]; male, C57/BL6, mouse, plasma, iv, 5 mg/kg, 1 h after iv 5 mg/kg artemiside 5, read-out: Mean iv circulating concentration): 930 nM | concentration at 3 h ([2]; male, C57/BL6, mouse, plasma, iv, 5 mg/kg, 3 h after iv 5 mg/kg artemiside 5, read-out: Mean iv circulating concentration): 180 nM | concentration at 5 h ([2]; male, C57/BL6, mouse, plasma, iv, 5 mg/kg, 5 h after iv 5 mg/kg artemiside 5, read-out: Mean iv circulating concentration): 86 nM | concentration at 7 h ([2]; male, C57/BL6, mouse, plasma, iv, 5 mg/kg, 7 h after iv 5 mg/kg artemiside 5, read-out: Mean iv circulating concentration): 37 nM | concentration at 24 h ([2]; male, C57/BL6, mouse, plasma, iv, 5 mg/kg, 24 h after iv 5 mg/kg artemiside 5, read-out: Mean iv circulating concentration): 8 nM | half-life ([2]; male, C57/BL6, mouse, plasma, iv, 5 mg/kg, iv 5 mg/kg, parent drug): 1.2 ± 0.1 h | concentration at 0.08 h ([2]; male, C57/BL6, mouse, plasma, po, 50 mg/kg, 0.08 h after po 50 mg/kg artemiside 5, read-out: Mean po circulating concentration): 85 nM | concentration at 0.25 h ([2]; male, C57/BL6, mouse, plasma, po, 50 mg/kg, 0.25 h after po 50 mg/kg artemiside 5, read-out: Mean po circulating concentration): 109 nM | concentration at 0.5 h ([2]; male, C57/BL6, mouse, plasma, po, 50 mg/kg, 0.5 h after po 50 mg/kg artemiside 5, read-out: Mean po circulating concentration): 135 nM | concentration at 1 h ([2]; male, C57/BL6, mouse, plasma, po, 50 mg/kg, 1 h after po 50 mg/kg artemiside 5, read-out: Mean po circulating concentration): 119 nM | concentration at 3 h ([2]; male, C57/BL6, mouse, plasma, po, 50 mg/kg, 3 h after po 50 mg/kg artemiside 5, read-out: Mean po circulating concentration): 58 nM | concentration at 5 h ([2]; male, C57/BL6, mouse, plasma, po, 50 mg/kg, 5 h after po 50 mg/kg artemiside 5, read-out: Mean po circulating concentration): 12 nM | concentration at 7 h ([2]; male, C57/BL6, mouse, plasma, po, 50 mg/kg, 7 h after po 50 mg/kg artemiside 5, read-out: Mean po circulating concentration): 6 nM | half-life ([2]; male, C57/BL6, mouse, plasma, po, 50 mg/kg, po 50 mg/kg, parent drug): 1.4 ± 0.04 h | clearance ([2]; male, C57/BL6, mouse, plasma, iv 5 mg/kg): 58.3 mL/min/kg | AUC(0-inf) [2, 5]: 3.9 ± 0.4 µM·h | MRT last ([2]; male, C57/BL6, mouse, plasma, iv 5 mg/kg, parent drug, 0-last up to 7 h): 1 ± 0.1 h | AUC(0-t) [2, 5]: 3.8 ± 0.5 µM·h | Vd ([2]; male, C57/BL6, mouse, plasma, iv 5 mg/kg, read-out: Vss): 4.1 ± 0.5 L/kg | Cmax [2, 6]: 130 ± 10 nM | MRT last [2, 6]: 1.9 ± 0.1 h | AUC(0-t) [2, 6]: 0.36 ± 0.06 µM·h | MAT (mean absorption time = MRTpo–MRTiv) ([2]; po 50 mg/kg): 0.92 ± 0.20 h | quantifiable/detectable in plasma up to ([2]; po group, parent drug): up to 7 h | IC50 [3]: 0.0015 ± 0.0005 µM | EC50 [4]: > 241 µM
